Assay results as given in paper PMC3654204, “2-Aminoethoxydiphenyl borate activates the mechanically gated human KCNK channels KCNK 2 (TREK-1), KCNK 4 (TRAAK), and KCNK 10 (TREK-2)” (Frontiers in Pharmacology, 2013).

Experiments:
Assay in all cases: two-electrode voltage clamp, Xenopus oocytes, current at +[…] mV
Assay type in all cases: cell-based
[1] = molecular target: T1, hKCNK2 (hTREK-1) (Homo sapiens, UniProt O95069)
T1 construct: gene KCNK2; full-length cDNA clone in pDNR-dual purchased from Imagenes, subcloned into pSGEM; cRNA injected in Xenopus laevis oocytes; K2P channels are homodimers
T1 sequence (O95069 1-426): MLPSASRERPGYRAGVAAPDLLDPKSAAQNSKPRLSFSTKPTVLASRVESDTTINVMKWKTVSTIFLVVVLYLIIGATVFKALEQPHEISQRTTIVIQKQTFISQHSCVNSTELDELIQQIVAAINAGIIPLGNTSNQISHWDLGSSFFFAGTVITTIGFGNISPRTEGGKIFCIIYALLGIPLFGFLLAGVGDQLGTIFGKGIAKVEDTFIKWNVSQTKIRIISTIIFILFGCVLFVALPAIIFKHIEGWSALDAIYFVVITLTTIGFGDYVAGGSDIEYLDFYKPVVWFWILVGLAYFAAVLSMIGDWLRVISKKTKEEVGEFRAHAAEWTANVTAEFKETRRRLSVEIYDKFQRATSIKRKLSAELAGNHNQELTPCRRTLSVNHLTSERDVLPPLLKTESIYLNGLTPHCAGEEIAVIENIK

[2] = molecular target: T2, hKCNK4 (hTRAAK) (Homo sapiens, UniProt Q9NYG8); settings: activator; frog Ringer's solution, pH 7.2; EC50 could not be determined; also active in inside-out HEK293 patches
T2 construct: gene KCNK4; full-length cDNA clone in pBluescript SK+ purchased from Imagenes; cRNA injected in Xenopus laevis oocytes, pCDNA3 in HEK293; K2P channels are homodimers
T2 sequence (Q9NYG8 1-393): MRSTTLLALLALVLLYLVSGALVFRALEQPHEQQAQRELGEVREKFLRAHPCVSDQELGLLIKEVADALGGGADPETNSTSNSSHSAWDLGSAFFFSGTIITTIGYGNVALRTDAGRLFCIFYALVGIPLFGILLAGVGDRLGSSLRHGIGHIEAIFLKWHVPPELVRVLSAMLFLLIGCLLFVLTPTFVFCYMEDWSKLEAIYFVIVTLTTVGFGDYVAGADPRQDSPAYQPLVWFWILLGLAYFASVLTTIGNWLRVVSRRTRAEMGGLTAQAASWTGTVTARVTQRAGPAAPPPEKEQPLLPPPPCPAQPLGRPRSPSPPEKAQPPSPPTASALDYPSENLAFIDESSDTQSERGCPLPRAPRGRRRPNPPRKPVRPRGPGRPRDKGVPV

[3] = molecular target: T3, hKCNK10 (TREK-2) (Homo sapiens, UniProt P57789)
T3 construct: gene KCNK10; full-length cDNA clone purchased from Imagenes, subcloned into pSGEM (cRNA, Xenopus laevis oocytes) and pCDNA3 (HEK293); K2P channels are homodimers
T3 sequence (P57789 1-538): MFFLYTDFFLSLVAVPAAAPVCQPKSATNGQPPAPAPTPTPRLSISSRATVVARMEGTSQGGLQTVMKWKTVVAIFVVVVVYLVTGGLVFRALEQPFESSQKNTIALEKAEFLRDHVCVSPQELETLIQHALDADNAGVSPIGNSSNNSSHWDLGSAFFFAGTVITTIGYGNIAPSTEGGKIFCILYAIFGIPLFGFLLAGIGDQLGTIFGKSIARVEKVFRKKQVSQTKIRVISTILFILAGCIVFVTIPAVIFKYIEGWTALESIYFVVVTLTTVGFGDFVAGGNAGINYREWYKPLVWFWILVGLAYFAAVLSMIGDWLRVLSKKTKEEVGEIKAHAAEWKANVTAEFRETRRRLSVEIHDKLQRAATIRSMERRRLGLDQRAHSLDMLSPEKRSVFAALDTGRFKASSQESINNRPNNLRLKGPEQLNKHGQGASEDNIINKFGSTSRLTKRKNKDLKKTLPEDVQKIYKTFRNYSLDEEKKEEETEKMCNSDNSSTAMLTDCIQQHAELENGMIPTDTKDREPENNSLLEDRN

EC50 [1]: 486 ± 135 µM
fold of basal current at 1 mM [2]: 2.68 ± 0.2 fold
EC50 [3]: 1220 ± 390 µM
SMILES: NCCOB(c1ccccc1)c1ccccc1 [2-APB]
